This note sets out measurements from PubChem BioAssay AID2305 (GlaxoSmithKline (GSK), 2010).

The subject of this assay is P. falciparum 3D7 growth, pLDH absorbance. The assay is described as follows: P. falciparum 3D7 growth inhibition, dose response, strain 3D7 (AID 2305).

Compound `Cc1cccc2[nH]c(-c3ccc(-c4cccc(CNCc5cnn(-c6ccccc6)n5)c4)s3)nc12` returned an IC50 of 0.55 µM.
On to `COC(=O)c1cc(C(O)CNC(C)CCCc2ccccc2)ccc1O` (stereo unspecified), for which the IC50 came to 0.74 µM.
As to `Cc1noc(C)c1-c1cccc(CNCc2cccc(-c3ccc(-c4nc5c(C)cccc5[nH]4)s3)c2)c1`, the IC50 worked out at 0.21 µM.
The same measure for `C[C@H](Cc1ccc(OCCCCCCOc2ccc(C[C@@H](C)N[C@H](C)c3ccccc3)cc2)cc1)NC[C@H](O)c1cccc(Cl)c1`: 0.24 µM; for `COc1cccc(CN2Cc3ccccc3OC3(CCN(Cc4c[nH]c5cnccc45)CC3)C2)c1`: 1.3 µM; for `CN(C)C(=O)O[C@@H]1CN[C@H](C#Cc2cc3ncnc(Nc4ccc5c(cnn5Cc5cccc(F)c5)c4)c3s2)C1`: 0.76 µM.
Then `COc1ccc(C=NNc2cc(C)nc3c(C)cccc23)c2ccccc12`, with 0.22 µM; and `Cc1occc1C(=O)Nc1nc(-c2ccccn2)nc2ccsc12`, with 0.9 µM.
Compound `CN1CCN(c2ccnc3ccc(NC(=O)Nc4ccc(-c5ccccc5)cc4)cc23)CC1` showed an IC50 of 0.78 µM.
As to `COc1ccc(-c2cccc(NC(=O)c3ccc(C#N)cc3)c2)cc1CNC(C)C`, the IC50 came to 0.81 µM.
As to `Cc1ccc(S(=O)(=O)Nc2ccc(Nc3nccc(Nc4cccc5[nH]ncc45)n3)cc2)cc1`, the IC50 was 0.96 µM.
In turn, `O=C(Nc1ccc(Cl)cc1)c1cccc2[nH]c(C(F)(F)F)nc12` yielded an IC50 of 0.76 µM.
Then `Cc1[nH]c2ccc(O)cc2c1C1CCN(CC2CCC(NC(=O)/C=C/c3ccc(Cl)c(Cl)c3)CC2)CC1` (stereo unspecified), with 0.76 µM.
Take `COc1cccc(CNC(=O)[C@@H]2CN(C(=O)c3ccccc3)CCN2)c1`: the IC50 was found to be 1.16 µM.
The compound `O=C(Nc1ccccc1)N(Cc1ccc(-c2ccc(CNCc3ccc4c(c3)OCO4)cc2)cc1)C1CCN(Cc2ccccc2)CC1` returned an IC50 of 0.57 µM.
For the compound `COc1cc2nc(N(C)C)nc(Nc3ccc(OCc4ccccc4)cc3)c2cc1OC`, the IC50 is 0.07 µM.
In the case of `COc1ccc2nccc([C@@H](O)CN3CCC(NCc4cc5sccc5nc4C(F)(F)F)CC3)c2c1`, the IC50 came out at 0.91 µM.
With `O=C1COc2ccccc2N1CCN1CCC(NCc2ccc(-c3cccs3)cc2)CC1`, the IC50 turned out to be 1.43 µM.
Then `O=[N+]([O-])c1ccc(Oc2ccccc2CNCC2CCN(CC3CCCCC3)CC2)cc1`, with 0.9 µM; and `CC(CN(C)C)C(=O)Nc1cccc(-c2ccc(-c3nc4ccc(F)cc4[nH]3)cc2)c1` (stereo unspecified), with 0.65 µM; and `CS(=O)(=O)Nc1ccc2[nH]cc(C3CCN(CC4CCC(NC(=O)/C=C/c5ccc(Cl)c(Cl)c5)CC4)CC3)c2n1` (stereo unspecified), with 0.78 µM.
The same measure for `COc1ccc2nccc([C@@H](O)CN3CCC(NCc4ccc5c(c4)OCCO5)CC3)c2c1`: 0.29 µM; for `CC(C)(C)c1ccc(CNC(=O)c2cc(CNC3CCC(N)CC3)ccc2O)cc1` (stereo unspecified): 1.03 µM.
The same measure for `Cc1ccc(-c2ccc(NC(=O)N3CCc4cc(Br)c(N5CCN(C)CC5)cc43)cc2)cn1`: 1.35 µM.
Turning to `O=C(/C=C/c1ccc(O)cc1)NC1CCC(CN2CCC(c3c[nH]c4ccccc34)CC2)CC1` (stereo unspecified), the IC50 is 0.74 µM.
`FC(F)(F)c1ccc2nc(-c3ccc(-c4ccc(CNCCN5CCNCC5)cc4)s3)[nH]c2c1` had an IC50 of 0.91 µM.
The same measure for `N=C(N)c1ccc(NC(=O)c2cc(Sc3ccc(O)c(C(=O)Nc4ccc(C(=N)N)cc4)c3)ccc2O)cc1`: 0.12 µM; for `CC(C)Sc1nncc(-c2cnnc(SC(C)C)n2)n1`: 0.14 µM.
`c1ccc2c(c1)CN(Cc1cc3ccccc3[nH]1)CC1(CCN(Cc3c[nH]c4cnccc34)CC1)O2` yielded an IC50 of 0.31 µM.
On to `CCN1C(=O)C(CC(=O)Nc2cccc(Cl)c2)N(Cc2ccc(OC)c(OC)c2)C1=S` (stereo unspecified), for which the IC50 worked out at 0.61 µM.
As for `O=C(NCCN1CCCCC1)c1cc2cc(-c3ccccc3)ccc2n1S(=O)(=O)c1ccccc1`, the IC50 amounted to 1.12 µM.
Then `CN(C)CCNCc1nc(-c2ccc3c(Nc4ccc(Cl)cc4F)ccnc3c2)cs1`, with 0.81 µM; and `CCC(C)c1cnc2nc(N)nc(N)c2c1C` (stereo unspecified), with 0.44 µM.
`COc1ccc(C2CC(c3cccs3)=NN2C(=O)CNc2ccccc2F)cc1OC` (stereo unspecified) displayed an IC50 of 0.63 µM.
On to `Cc1cc(-c2cccc(CNC3CCN(C)CC3)c2)ccc1S(=O)(=O)NC1CCC1`, for which the IC50 worked out at 0.73 µM.
As for `CCC(Cc1ccccc1)c1cc(O)c(Cc2ccc(-c3ccccc3)cc2)c(=O)o1` (stereo unspecified), the IC50 turned out to be 0.97 µM.
`CCCCOc1ccc(CNCCCCCCNCc2ccc(OCCCC)c3ccccc23)c2ccccc12` gave an IC50 of 1.13 µM.
`O=C(CCN1C(=O)c2ccccc2C1=O)N1CCN(CC=Cc2ccccc2)CC1`: the IC50 amounted to 0.54 µM.
Then `Cc1[nH]cnc1-c1cccc(NC(=O)c2cc3ccccc3s2)c1`, with 0.21 µM; and `CC[C@H]1CN2CC[C@@H]1C[C@H]2[C@H](O)c1cc(-c2cc(Cl)cc(Cl)c2)nc2ccc(OC)cc12`, with 0.24 µM; and `Cc1ccc(NC(=O)c2ccc(CN3CCCN(CC4CCCCC4)CC3)cc2)cc1F`, with 0.29 µM.
Then `COc1ccc2nccc(N3CCC(CCNCc4ccc5c(n4)NC(=O)CO5)CC3)c2n1`, with 1 µM; and `CCCCCCN1CCCN(Cc2ccc(C(=O)Nc3ccc(C(C)C)cc3)cc2)CC1`, with 0.83 µM.
`COc1cc2c(c(Cl)c1OC)CCN(Cc1ccccc1)CC2c1ccc(NC(=O)C(F)(F)F)cc1` (stereo unspecified) came in with an IC50 of 0.92 µM.
Then `C=CCN1Cc2c(O)cccc2C(c2ccc(O)c(O)c2)C1` (stereo unspecified), with 0.67 µM; and `CCCN1CCN(Cc2ccc(-c3ccc(-c4nc5ccccc5[nH]4)s3)cc2)CC1`, with 0.61 µM; and `N#Cc1ccc2c(c1)CCN(CCC1CCC(NC(=O)c3cc4ccc(Cl)cc4[nH]3)CC1)C2` (stereo unspecified), with 0.7 µM.
Regarding `Cc1nnc(-c2cccc(Nc3ccnc4cc(-c5nccs5)ccc34)c2)o1`, the IC50 amounted to 0.63 µM.
In turn, `CC(C)[C@H](NC(=O)c1ccc(O)c(-c2cccc(C(F)(F)F)c2)c1)C(=O)NCCN1CCCCC1` registered an IC50 of 0.84 µM.
The same measure for `COC(=O)c1cccc(CNCc2ccc(-c3ccc(-c4nc5c(C)cccc5[nH]4)cc3)cc2)c1`: 0.28 µM; for `Cc1cc(N[C@@H](CC(C)C)C(=O)Nc2ccccc2)nc(Nc2ccccc2)n1`: 0.73 µM.
The same measure for `CCN(CC)CCCN(C(=O)c1cc2c(C)nn(-c3ccccc3)c2s1)c1nc(-c2ccc(OC)cc2)cs1`: 1.15 µM.
For the compound `CN1CCCN(c2ccnc3cc4c(cc23)N(C(=O)c2ccc(Cl)cc2Cl)CC4)CC1`, the IC50 is 0.81 µM.
Take `C=CCC(C)n1ncc2c3c(N)nc(N)nc3ccc21` (stereo unspecified): the IC50 worked out at 0.05 µM.
In turn, `Cc1[nH]c(C)c(-c2ccc(C(=O)c3ccc(Cl)cc3)cc2)c(=O)c1Br` yielded an IC50 of 0.81 µM.
In turn, `Cc1cc(N2CCN(CC3CCN(C)CC3)CC2)nc(Nc2ccc(Cl)cc2)n1` registered an IC50 of 0.7 µM.
Turning to `CO/C(=C\C=C\c1cc2cc(Cl)c(Cl)cc2[nH]1)C(=O)NCCCN1CCN(c2cccc(CCCO)c2)CC1`, the half-maximal inhibitory concentration (IC50) is 1.03 µM.
Turning to `Cc1cc(C(F)(F)F)n2nc(C(=O)N(Cc3cncn3Cc3ccccc3F)CC3CC3)cc2n1`, the IC50 amounted to 0.96 µM.
`N#Cc1ccc2c(c1)CCN(CCC1CCC(NC(=O)/C=C/c3c[nH]c4ccc(F)cc34)CC1)CC2` (stereo unspecified) returned an IC50 of 0.69 µM.
The compound `Cc1cc(C)c(O)c(-c2cc(C(=O)Nc3ccc(S(=O)(=O)N4CC(C)OC(C)C4)cc3)[nH]n2)c1` (stereo unspecified) came in with an IC50 of 0.66 µM.
`Cc1[nH]c(C)c(-c2ccc(-c3cccc(C(F)(F)F)c3)nc2)c(=O)c1Br` came in with a concentration for half-maximal inhibition (IC50) of 0.14 µM.
`CCCCC/C=C/C(=O)NC1CCC(CN2CCC(c3c[nH]c4ccccc34)CC2)CC1` (stereo unspecified) gave an IC50 of 0.98 µM.
Then `Cc1ccccc1C1CCN(c2ccc(C(=O)NC3CC3)cn2)CC1`, with 0.85 µM.
For `CCc1ccc(N2C(=O)C3C(Cc4ccc(OC(C)(C)C)cc4)NC4(C(=O)N(Cc5ccccc5)c5ccc(F)cc54)C3C2=O)cc1` (stereo unspecified), the half-inhibitory concentration (IC50) stood at 0.8 µM.
Then `Cc1ccc(C(=O)Nc2cccc(CN3CCCN(Cc4ccc(O)cc4)CC3)c2)s1`, with 1 µM; and `CC(=O)Nc1ncc(C(=O)Nc2cccc(-c3ccc(-c4nc5ccc(C(F)(F)F)cc5[nH]4)s3)c2)s1`, with 0.4 µM.
Then `Cc1ccc(-c2nnc(Nc3ccc(OCC(N)=O)cc3)c3ccccc23)cc1S(=O)(=O)NCC1CCCO1` (stereo unspecified), with 0.75 µM; and `CN(CCN)Cc1cccc(-c2cccc(-c3nc4ccc(F)cc4[nH]3)c2)c1`, with 0.79 µM.
In turn, `CC(=O)c1c(Cc2ccccc2Cl)c[nH]c1C` showed an IC50 of 0.85 µM.
The compound `O=C(N[C@@H](CC1CCCCC1)C(=O)NC1CCCCCC1)c1ccc(O)c(-c2ccc(Cl)c(Cl)c2)c1` showed an IC50 of 0.1 µM.
Turning to `COc1ccc2c(ccc3c2ncc2c(=O)n(-c4ccccc4)[nH]c23)c1`, the IC50 is 0.52 µM.
Compound `O=C(Nc1ccc(Cl)cc1)Nc1ccc(-c2cccc(-c3nc4ccc(F)cc4[nH]3)c2)cc1` came in with an IC50 of 0.29 µM.
Take `COc1ccc(CN2CCCN(Cc3cccc(NC(=O)c4cc5ccccc5s4)c3)CC2)cc1`: the IC50 turned out to be 0.84 µM.
Turning to `O=C(NC1CCC(CN2CCC(c3c[nH]c4ccccc34)CC2)CC1)c1cn(Cc2ccccc2)c2ccccc12` (stereo unspecified), the IC50 is 1.13 µM.
Regarding `CC(C)N1CCN(CCCNc2c3ccccc3nc3ccccc23)CC1`, the IC50 amounted to 0.23 µM.
Then `Cc1cc(N(C)C)nc(Nc2ccc(NC(=O)COc3ccccc3)cc2)n1`, with 1.76 µM; and `Cc1nc(N2CCC(C)CC2)c2c3c(sc2n1)CCCC3`, with 1.06 µM.
The same measure for `c1ccc(COc2ccc(C3CCCCC3)cc2)nc1`: 0.77 µM; for `CCOC(=O)C1=C(C)N=c2sc(=Cc3cc(Cl)ccc3O)c(=O)n2C1c1ccc(OC)cc1` (stereo unspecified): 0.75 µM; for `O=C(NCc1ccc2c(c1)OCO2)c1nn(CCN2CCC(N3CCCC3)CC2)cc1-c1ccc(Cl)c(Cl)c1`: 0.94 µM.
In turn, `O=C(NC1CCN(CCc2c[nH]c3ccc(F)cc23)CC1)c1ncc(-c2ccccc2)[nH]1` registered a half-maximal inhibitory concentration (IC50) of 0.87 µM.
Compound `COc1ccccc1-c1csc(C(=O)NCC2CCN(Cc3ccc(C(C)(C)C)cc3)C2)c1` (stereo unspecified) came in with a half-maximal inhibitory concentration (IC50) of 1.11 µM.
Then `O=C(Nc1cccc(-c2ccc(-c3nc4ccc(C(F)(F)F)cc4[nH]3)cc2)c1)c1ccncc1`, with 0.34 µM; and `CC(Cc1ccc(CNC(=O)NCc2ccc(CC(C)NCCc3cccc(Cl)c3)cc2)cc1)NCCc1cccc(Cl)c1` (stereo unspecified), with 0.69 µM; and `O=C(NCCN1CCOCC1)c1ccc(-c2ccc(CNCCCc3ccccc3)cc2)nc1`, with 0.78 µM.
`O=C(NCCNc1noc(-c2sccc2Br)n1)c1ccc(Cl)cc1` came in with an IC50 of 1.17 µM.

As a reminder, the IC50 is the concentration that gives 50% inhibition. High values mean lower potency, low ones higher potency.
